{"source": "patent US20210255193A1", "about": "“LYSINE REACTIVE PROBES AND USES THEREOF” (The Scripps Research Institute, priority 2017, published 2021)", "assay_in_all_cases": "competitive isoTOP-ABPP", "format_in_all_cases": "binding", "key": {"[1]": {"target": "T1, XRCC6 X-ray repair cross-complementing protein 6 (Homo sapiens, UniProt P12956)", "T1 construct": "isoTOP-ABPP experiments performed in cell lysates (in vitro); endogenous in cells; host or cells: soluble proteome of human cancer cell lines (MDA-MB-231; Ramos and Jurkat also prepared)", "T1 sequence (P12956 2-609 limits assumed)": "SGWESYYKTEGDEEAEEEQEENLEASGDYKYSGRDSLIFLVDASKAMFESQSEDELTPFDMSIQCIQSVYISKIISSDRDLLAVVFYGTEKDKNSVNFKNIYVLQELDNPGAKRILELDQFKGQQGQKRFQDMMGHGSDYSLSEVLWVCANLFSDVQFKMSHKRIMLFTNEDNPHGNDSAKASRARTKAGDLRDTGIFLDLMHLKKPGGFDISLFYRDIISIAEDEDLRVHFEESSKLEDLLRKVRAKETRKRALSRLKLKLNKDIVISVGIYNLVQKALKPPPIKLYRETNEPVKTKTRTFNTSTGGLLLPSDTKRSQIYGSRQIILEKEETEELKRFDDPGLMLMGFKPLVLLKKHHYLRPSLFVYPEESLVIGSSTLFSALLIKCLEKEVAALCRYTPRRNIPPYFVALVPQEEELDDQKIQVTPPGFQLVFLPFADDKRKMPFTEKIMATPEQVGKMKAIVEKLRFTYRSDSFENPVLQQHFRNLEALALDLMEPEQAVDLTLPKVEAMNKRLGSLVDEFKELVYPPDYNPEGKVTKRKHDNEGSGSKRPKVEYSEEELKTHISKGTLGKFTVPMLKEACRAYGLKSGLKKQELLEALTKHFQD", "T1 sequence (P13010 2-732 partner limits assumed)": "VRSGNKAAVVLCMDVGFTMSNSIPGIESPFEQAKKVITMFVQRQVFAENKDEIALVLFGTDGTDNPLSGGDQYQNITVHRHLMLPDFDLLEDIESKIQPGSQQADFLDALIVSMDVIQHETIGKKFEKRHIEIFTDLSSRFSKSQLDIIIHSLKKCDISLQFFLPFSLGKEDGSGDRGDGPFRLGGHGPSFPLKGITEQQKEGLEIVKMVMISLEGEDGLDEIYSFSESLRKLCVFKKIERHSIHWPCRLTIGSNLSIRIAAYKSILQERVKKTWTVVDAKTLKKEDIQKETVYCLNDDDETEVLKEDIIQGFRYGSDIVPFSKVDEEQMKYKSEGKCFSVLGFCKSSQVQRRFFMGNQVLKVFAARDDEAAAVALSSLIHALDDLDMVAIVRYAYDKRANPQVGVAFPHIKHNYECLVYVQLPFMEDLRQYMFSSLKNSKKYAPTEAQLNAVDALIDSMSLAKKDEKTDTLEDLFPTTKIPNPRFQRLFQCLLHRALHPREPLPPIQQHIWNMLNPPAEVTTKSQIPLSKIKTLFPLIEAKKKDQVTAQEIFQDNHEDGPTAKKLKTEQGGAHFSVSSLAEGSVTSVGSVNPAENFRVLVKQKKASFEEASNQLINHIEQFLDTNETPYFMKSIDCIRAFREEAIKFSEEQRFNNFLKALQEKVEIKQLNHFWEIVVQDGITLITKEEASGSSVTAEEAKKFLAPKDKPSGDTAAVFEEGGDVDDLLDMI", "settings": "for isoTOP-ABPP ratio (R) at liganded lysine P12956_K351: 50 uM, in vitro, sol, 231", "how_it_was_run": "(§1)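 Cell lysate (0.5 ml) was pre-treated with fragment, 50 μM for activated esters or 100 μM for guanidinylating agents, versus DMSO, then labeled 1 h at ambient temperature with 0.1 mM STP-alkyne. Light/heavy TEV tags attached by CuAAC; R = DMSO/compound MS1 peak-area ratio, median per lysine.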"}, "[2]": {"target": "T2, WARS Tryptophan--tRNA ligase, cytoplasmic (Homo sapiens, UniProt P23381)", "T2 construct": "isoTOP-ABPP experiments performed in cell lysates (in vitro); endogenous in cells; host or cells: soluble proteome of human cancer cell lines (MDA-MB-231; Ramos and Jurkat also prepared)", "T2 sequence (P23381 1-471)": "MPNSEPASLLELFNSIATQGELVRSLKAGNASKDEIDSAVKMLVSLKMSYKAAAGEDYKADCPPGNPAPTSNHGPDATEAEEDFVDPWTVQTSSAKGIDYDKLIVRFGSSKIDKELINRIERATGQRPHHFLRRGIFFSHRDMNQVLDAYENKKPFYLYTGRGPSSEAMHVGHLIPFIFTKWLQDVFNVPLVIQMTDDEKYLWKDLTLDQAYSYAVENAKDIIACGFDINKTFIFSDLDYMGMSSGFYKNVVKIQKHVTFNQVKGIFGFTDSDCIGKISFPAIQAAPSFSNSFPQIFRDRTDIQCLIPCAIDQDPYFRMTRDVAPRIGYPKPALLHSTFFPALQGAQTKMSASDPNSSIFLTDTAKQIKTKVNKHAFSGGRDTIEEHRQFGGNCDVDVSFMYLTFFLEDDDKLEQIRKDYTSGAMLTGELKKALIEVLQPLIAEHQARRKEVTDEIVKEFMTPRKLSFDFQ", "settings": "for isoTOP-ABPP ratio (R) at liganded lysine P23381_K256: 50 uM, in vitro, sol, 231", "how_it_was_run": "as §1"}, "[3]": {"target": "T3, GBAS Protein NipSnap homolog 2 (Homo sapiens, UniProt O75323)", "T3 construct": "isoTOP-ABPP experiments performed in cell lysates (in vitro); endogenous in cells; host or cells: MDA-MB-231 soluble lysate", "T3 sequence (O75323 24-286)": "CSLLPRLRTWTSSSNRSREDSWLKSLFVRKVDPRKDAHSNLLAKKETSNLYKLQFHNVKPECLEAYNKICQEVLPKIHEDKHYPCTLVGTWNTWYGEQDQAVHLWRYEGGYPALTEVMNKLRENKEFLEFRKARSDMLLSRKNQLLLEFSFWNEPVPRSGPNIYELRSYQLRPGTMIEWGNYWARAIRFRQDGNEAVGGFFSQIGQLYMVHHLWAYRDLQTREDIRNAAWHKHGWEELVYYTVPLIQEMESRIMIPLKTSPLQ", "settings": "for isoTOP-ABPP ratio (R) at liganded lysine O75323_K75: 50 uM, in vitro, sol, 231", "how_it_was_run": "as §1"}}}
{"smiles": "O=C(Oc1ccc([N+](=O)[O-])cc1[N+](=O)[O-])C(c1ccccc1)(c1ccccc1)c1ccccc1", "note": "[fragment 42, 2,4-Dinitrophenyl 2,2,2-triphenylacetate]", "values": [{"measurement": "isoTOP-ABPP ratio (R) at liganded lysine P12956_K351", "setting": "[1]", "value": 1.0}, {"measurement": "isoTOP-ABPP ratio (R) at liganded lysine P23381_K256", "setting": "[2]", "value": 1.1}, {"measurement": "isoTOP-ABPP ratio (R) at liganded lysine O75323_K75", "setting": "[3]", "value": 0.9}]}
{"smiles": "CC(=O)Oc1ccc([N+](=O)[O-])cc1[N+](=O)[O-]", "note": "[fragment 43, 2,4-Dinitrophenyl acetate]", "values": [{"measurement": "isoTOP-ABPP ratio (R) at liganded lysine P12956_K351", "setting": "[1]", "value": 1.5}, {"measurement": "isoTOP-ABPP ratio (R) at liganded lysine P23381_K256", "setting": "[2]", "value": 1.0}, {"measurement": "isoTOP-ABPP ratio (R) at liganded lysine O75323_K75", "setting": "[3]", "value": 1.6}]}
{"smiles": "N#Cc1ccc(C(=O)Oc2ccc([N+](=O)[O-])cc2[N+](=O)[O-])cc1", "note": "[fragment 44, 2,4-Dinitrophenyl 4-cyanobenzoate]", "values": [{"measurement": "isoTOP-ABPP ratio, lysine P12956_K351", "setting": "[1]; 50 uM_231_sol_in vitro", "value": 1.1}, {"measurement": "isoTOP-ABPP ratio, lysine P23381_K256", "setting": "[2]; 50 uM_231_sol_in vitro", "value": 1.1}, {"measurement": "isoTOP-ABPP ratio, lysine O75323_K75", "setting": "[3]; 50 uM_231_sol_in vitro", "value": 1.1}]}
{"smiles": "O=C(CCc1ccc2c(c1)OCO2)Oc1ccc([N+](=O)[O-])cc1[N+](=O)[O-]", "note": "[fragment 45, 2,4-Dinitrophenyl 3-(benzo[d][1,3]dioxol-5-yl)propanoate]", "values": [{"measurement": "isoTOP-ABPP ratio, lysine P12956_K351", "setting": "[1]; 50 uM_231_sol_in vitro", "value": 1.9}, {"measurement": "isoTOP-ABPP ratio, lysine P23381_K256", "setting": "[2]; 50 uM_231_sol_in vitro", "value": 1.1}, {"measurement": "isoTOP-ABPP ratio, lysine O75323_K75", "setting": "[3]; 50 uM_231_sol_in vitro", "value": 5.0}]}
{"smiles": "O=C(ON1C(=O)CCC1=O)c1cc(C(F)(F)F)cc(C(F)(F)F)c1", "note": "[fragment 46, 3,5-Bis(trifluoromethyl)benzoic acid NHS ester]", "values": [{"measurement": "isoTOP-ABPP ratio, lysine P12956_K351", "setting": "[1]; 50 uM_231_sol_in vitro", "value": 2.5}, {"measurement": "isoTOP-ABPP ratio, lysine P23381_K256", "setting": "[2]; 50 uM_231_sol_in vitro", "value": 1.6}, {"measurement": "isoTOP-ABPP ratio, lysine O75323_K75", "setting": "[3]; 50 uM_231_sol_in vitro", "value": 0.9}]}
{"smiles": "COC(=O)NC(=NC(=O)OCC1c2ccccc2-c2ccccc21)n1cccn1", "note": "[fragment 49, N-Methoxycarbonyl-N′-9-fluorenylmethoxycarbonyl-pyrazole-1-carboxamidine]", "values": [{"measurement": "isoTOP-ABPP ratio, lysine P12956_K351", "setting": "[1]; 100 uM_231_sol_in vitro", "value": 20.0}, {"measurement": "isoTOP-ABPP ratio, lysine P23381_K256", "setting": "[2]; 100 uM_231_sol_in vitro", "value": 1.0}, {"measurement": "isoTOP-ABPP ratio, lysine O75323_K75", "setting": "[3]; 100 uM_231_sol_in vitro", "value": 1.7}]}
{"smiles": "CC(C)(C)OC(=O)N=C(NC(=O)OC(C)(C)C)n1cccn1", "note": "[fragment 50, reference compound]", "values": [{"measurement": "isoTOP-ABPP ratio, lysine P12956_K351", "setting": "[1]; 100 uM_231_sol_in vitro", "value": 6.0}, {"measurement": "isoTOP-ABPP ratio, lysine P23381_K256", "setting": "[2]; 100 uM_231_sol_in vitro", "value": 1.1}, {"measurement": "isoTOP-ABPP ratio, lysine O75323_K75", "setting": "[3]; 100 uM_231_sol_in vitro", "value": 1.3}]}
